Values after ≈ are worked out from the molar mass of the structure shown.
Legend:
[1] = system: B. humptydooensis ATCC BAA-2767; experiment: microbe, parasite or virus in culture; assay type: cell-based; details: Burkholderia humptydooensis, ATCCBAA2767, read-out: Minimum inhibitory concentration (MIC), B. humptydooensis ATCC BAA-2767
A. baumannii ATCC 19606 = experiment: microbe, parasite or virus in culture; assay type: cell-based; details: Acinetobacter baumannii, ATCC19606, read-out: MIC, A. baumannii ATCC 19606
N. gonorrhoeae MS11 = experiment: Liquid broth MIC in Fastidious broth; details: Neisseria gonorrhoeae, MS11, read-out: Minimum Inhibitory Concentration (MIC), N. gonorrhoeae MS11
Description: Additional antibacterial testing of the series was performed in 8 reference strains of N. gonorrhoeae (ATCC 49226, FA1090, MS 11, WHO G, WHO L, WHO M, WHO K, WHO X, WHO Z, WHO Q, CDC-0197). ATCC 49226, FA1090, MS11, WHO G, WHO L, and WHO M produce wild type or wild-type like PBP2. WHO K, WHO X, WHO Z, WHO Q, and CDC-0197 produce mosaic PBP2. Liquid broth-based assays were used for antibacterial testing of PBP inhibitors in Neisseria gonorrhoeae. Briefly, cryo-preserved bacterial cultures of clinical strains were streaked for isolation on Chocolate Agar (72 g/L (2×) GC Agar Base (BD #228950) and 2% (2×) Hemoglobin was autoclaved at 121° C. for 20 minutes to sterilize. Once cooled to ˜50° C. the 2×GC Agar Base and 2× Hemoglobin solutions are combined and 1% IsoVitaleX Enrichment (BD #211876) was added to the solution). Strains were incubated at 36° C. and 5% CO2 to allow growth of colonies, 24 hours before inoculum preparation. 2-fold serial dilutions of test compounds were conducted in a 96 well plate with a final volume of 75 μL per well at 2-fold the final desired concentration in Fastidious broth (Remel #R07664). For preparation of assay inoculum, a direct suspension was prepared by aseptically swabbing 10-15 colonies from agar plates into culture tubes containing 2 mL of fresh sterile saline. After the dilution plates were set up, direct suspensions were then diluted in a cuvette containing sterile saline and the optical density was measured at 600 nm. Inocula were diluted such that 75 μL of this culture in Fastidious broth results in a starting bacterial concentration of 5×10^5 CFU/mL when added to the dilution plates. The plates were incubated for ˜24 hours at 36° C. and 5% CO2.

N. gonorrhoeae WHO Z = experiment: Liquid broth MIC in Fastidious broth; details: Neisseria gonorrhoeae, read-out: Minimum Inhibitory Concentration (MIC), N. gonorrhoeae WHO Z
N. gonorrhoeae WHO L = experiment: Liquid broth MIC in Fastidious broth; details: Neisseria gonorrhoeae, read-out: Minimum Inhibitory Concentration (MIC), N. gonorrhoeae WHO L
[2] = system: B. thailandensis ATCC 700388; experiment: microbe, parasite or virus in culture; assay type: cell-based; details: Burkholderia thailandensis, ATCC700388, read-out: Minimum inhibitory concentration (MIC), B. thailandensis ATCC 700388
N. gonorrhoeae FA1090 = experiment: Liquid broth MIC in Fastidious broth; details: Neisseria gonorrhoeae, FA1090, read-out: Minimum Inhibitory Concentration (MIC), N. gonorrhoeae FA 1090
N. gonorrhoeae WHO G = experiment: Liquid broth MIC in Fastidious broth; details: Neisseria gonorrhoeae, read-out: Minimum Inhibitory Concentration (MIC), N. gonorrhoeae WHO G
[3] = system: P. aeruginosa (ΔmexAB-oprM); experiment: Broth microdilution MIC in iron-depleted CAMHB (IDM); assay type: cell-based; details: Pseudomonas aeruginosa; iron-depleted CAMHB (IDM); […]; read-out: Minimum inhibitory concentration, P. aeruginosa ΔmexAB-oprM
[4] = target: T1, PBP3 from Escherichia coli (K-12) (Escherichia coli, UniProt P0AD68); experiment: Bocillin-FL fluorescence polarization competition binding, E. coli PBP3
T1 construct: made in house
How it was run: (§1)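 Purified PBPs pre-incubated with inhibitor (E. coli PBP3 1.5 μM, 30 min; P. aeruginosa PBP3 0.75 μM, A. baumannii PBP1a 1 μM and PBP3 0.2 μM, 15 min), then Bocillin-FL 0.1 μM (0.05 μM for PBP1a) added; FP read up to 60 min. EC50 = concentration halving bound Bocillin-FL.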

N. gonorrhoeae CDC-0197 = experiment: Liquid broth MIC in Fastidious broth; details: Neisseria gonorrhoeae, CDC0197, read-out: Minimum Inhibitory Concentration (MIC), N. gonorrhoeae CDC-0197
P. aeruginosa ATCC 27853 = experiment: microbe, parasite or virus in culture; assay type: cell-based; details: Pseudomonas aeruginosa, ATCC27853, read-out: Minimum inhibitory concentration, P. aeruginosa ATCC 27853
[5] = system: N. gonorrhoeae ATCC 49226; experiment: Liquid broth MIC in Fastidious broth; details: Neisseria gonorrhoeae, ATCC49226, read-out: Minimum Inhibitory Concentration (MIC), N. gonorrhoeae ATCC 49226
A. baumannii CDC-0045 = experiment: microbe, parasite or virus in culture; assay type: cell-based; details: Acinetobacter baumannii, CDC0045, read-out: MIC, A. baumannii CDC-0045
[6] = target: T2, PBP3 from Pseudomonas aeruginosa (PAO1) (Pseudomonas aeruginosa, UniProt G3XD46); experiment: Bocillin-FL fluorescence polarization competition binding, P. aeruginosa PBP3; details: Binding affinity to P. aeruginosa PBP3; fluorescence polarization competition binding assay using Bocillin-FL; read-out: P. aeruginosa PBP3 Potency
T2 construct: made in house
How it was run: as §1

T2 sequence (G3XD46 whole entry): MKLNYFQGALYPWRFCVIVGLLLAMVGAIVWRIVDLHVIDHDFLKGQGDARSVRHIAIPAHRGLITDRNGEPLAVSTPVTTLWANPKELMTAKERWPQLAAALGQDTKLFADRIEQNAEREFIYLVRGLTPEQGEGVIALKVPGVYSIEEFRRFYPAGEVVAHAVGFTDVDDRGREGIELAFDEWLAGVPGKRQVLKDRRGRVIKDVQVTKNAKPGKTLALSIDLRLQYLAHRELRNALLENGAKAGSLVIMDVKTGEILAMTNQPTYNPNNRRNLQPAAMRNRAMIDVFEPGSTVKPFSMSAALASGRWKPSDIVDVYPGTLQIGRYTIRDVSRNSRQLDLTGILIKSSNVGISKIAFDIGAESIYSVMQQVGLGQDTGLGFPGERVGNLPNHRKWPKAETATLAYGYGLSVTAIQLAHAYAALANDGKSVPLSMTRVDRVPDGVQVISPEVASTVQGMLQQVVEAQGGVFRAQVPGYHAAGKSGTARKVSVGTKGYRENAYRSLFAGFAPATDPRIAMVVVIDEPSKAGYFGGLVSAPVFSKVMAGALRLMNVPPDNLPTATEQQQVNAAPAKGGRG
T1 sequence (P0AD68 1-577): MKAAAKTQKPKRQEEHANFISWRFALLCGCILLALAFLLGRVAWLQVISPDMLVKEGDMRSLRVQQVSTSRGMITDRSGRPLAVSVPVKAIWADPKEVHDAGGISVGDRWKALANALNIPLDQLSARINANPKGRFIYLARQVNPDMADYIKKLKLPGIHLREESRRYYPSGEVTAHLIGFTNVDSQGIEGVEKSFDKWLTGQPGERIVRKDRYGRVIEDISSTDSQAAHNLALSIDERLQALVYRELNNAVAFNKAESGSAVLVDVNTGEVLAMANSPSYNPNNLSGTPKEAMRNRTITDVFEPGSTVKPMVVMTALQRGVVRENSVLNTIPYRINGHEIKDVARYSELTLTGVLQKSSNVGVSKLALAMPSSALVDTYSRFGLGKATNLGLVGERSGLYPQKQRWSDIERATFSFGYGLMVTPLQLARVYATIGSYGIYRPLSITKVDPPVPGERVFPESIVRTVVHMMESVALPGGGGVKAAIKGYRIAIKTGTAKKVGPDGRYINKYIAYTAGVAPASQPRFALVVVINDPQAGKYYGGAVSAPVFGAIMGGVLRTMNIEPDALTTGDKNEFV

Row | SMILES | MIC [1] [µg/mL] | MIC (A. baumannii ATCC 19606) [µg/mL] | MIC (N. gonorrhoeae MS11) [µg/mL] | MIC (N. gonorrhoeae WHO Z) [µg/mL] | MIC (N. gonorrhoeae WHO L) [µg/mL] | MIC [2] [µg/mL] | MIC (N. gonorrhoeae FA1090) [µg/mL] | MIC (N. gonorrhoeae WHO G) [µg/mL] | MIC [3] [µg/mL] | EC50 [4] [µM] | MIC (N. gonorrhoeae CDC-0197) [µg/mL] | MIC (P. aeruginosa ATCC 27853) [µg/mL] | MIC [5] [µg/mL] | MIC (A. baumannii CDC-0045) [µg/mL] | IC50 [6] [µM]
1 | O=C(CN1CCN(C(=O)NC(C(=O)N[C@H]2Cc3ccc(F)c(C(=O)O)c3OB2O)c2cc(F)c(O)c(O)c2Cl)C(=O)C1=O)Nc1ccccc1 (stereo partly drawn) [Example 232, (3R)-3-(2-(2-chloro-5-fluoro-3,4-dihydroxyphenyl)-2-(2,3-dioxo-4-(2-oxo-2-(phenylamino)ethyl)piperazine-1-carboxamido)acetamido)-7-fluoro-2-hydroxy-3,4-dihydro-2H-benzo[e][1,2]oxaborinine-8-carboxylic acid] | > 128 | 2 to 4 (≈ 2.79 to 5.59 µM) | 16 to 32 (≈ 22.4 to 44.7 µM) | 16 to 32 (≈ 22.4 to 44.7 µM) | > 64 | < 1 | 1 to 2 (≈ 1.4 to 2.79 µM) | 16 to 32 (≈ 22.4 to 44.7 µM) | < 1 | < 10 | > 64 | 2 to 4 (≈ 2.79 to 5.59 µM) | 16 to 32 (≈ 22.4 to 44.7 µM) | 8 to 16 (≈ 11.2 to 22.4 µM) | < 10
2 | O=C(CN1CCN(C(=O)NC(C(=O)N[C@H]2Cc3ccc(F)c(C(=O)O)c3OB2O)c2cc(F)c(O)c(O)c2Cl)C(=O)C1=O)Nc1ccncc1 (stereo partly drawn) [Example 233, (3R)-3-(2-(2-chloro-5-fluoro-3,4-dihydroxyphenyl)-2-(2,3-dioxo-4-(2-oxo-2-(pyridin-4-ylamino)ethyl)piperazine-1-carboxamido)acetamido)-7-fluoro-2-hydroxy-3,4-dihydro-2H-benzo[e][1,2]oxaborinine-8-carboxylic acid] | < 1 | < 1 | 16 to 32 (≈ 22.3 to 44.6 µM) | 16 to 32 (≈ 22.3 to 44.6 µM) | > 64 | 2 to 4 (≈ 2.79 to 5.58 µM) | 1 to 2 (≈ 1.4 to 2.79 µM) | 4 to 8 (≈ 5.58 to 11.2 µM) | < 1 | < 10 | 16 to 32 (≈ 22.3 to 44.6 µM) | < 1 | 4 to 8 (≈ 5.58 to 11.2 µM) | 2 to 4 (≈ 2.79 to 5.58 µM) | < 10
3 | O=C(CN1CCN(C(=O)NC(C(=O)N[C@H]2Cc3ccc(F)c(C(=O)O)c3OB2O)c2cc(F)c(O)c(O)c2Cl)C(=O)C1=O)Nc1cccnc1 (stereo partly drawn) [Example 234, (3R)-3-(2-(2-chloro-5-fluoro-3,4-dihydroxyphenyl)-2-(2,3-dioxo-4-(2-oxo-2-(pyridin-3-ylamino)ethyl)piperazine-1-carboxamido)acetamido)-7-fluoro-2-hydroxy-3,4-dihydro-2H-benzo[e][1,2]oxaborinine-8-carboxylic acid] | < 1 | < 1 | 16 to 32 (≈ 22.3 to 44.6 µM) | 16 to 32 (≈ 22.3 to 44.6 µM) | > 64 | 8 to 16 (≈ 11.2 to 22.3 µM) | 1 to 2 (≈ 1.4 to 2.79 µM) | 4 to 8 (≈ 5.58 to 11.2 µM) | < 1 | < 10 | 16 to 32 (≈ 22.3 to 44.6 µM) | 2 to 4 (≈ 2.79 to 5.58 µM) | 4 to 8 (≈ 5.58 to 11.2 µM) | < 1 | < 10
4 | O=C(CN1CCN(C(=O)NC(C(=O)N[C@H]2Cc3ccc(F)c(C(=O)O)c3OB2O)c2cc(F)c(O)c(O)c2Cl)C(=O)C1=O)Nc1nccs1 (stereo partly drawn) [Example 235, (3R)-3-(2-(2-chloro-5-fluoro-3,4-dihydroxyphenyl)-2-(2,3-dioxo-4-(2-oxo-2-(thiazol-2-ylamino)ethyl)piperazine-1-carboxamido)acetamido)-7-fluoro-2-hydroxy-3,4-dihydro-2H-benzo[e][1,2]oxaborinine-8-carboxylic acid] | < 1 | < 1 | 16 to 32 (≈ 22.1 to 44.3 µM) | 16 to 32 (≈ 22.1 to 44.3 µM) | > 64 | 8 to 16 (≈ 11.1 to 22.1 µM) | 1 to 2 (≈ 1.38 to 2.77 µM) | 4 to 8 (≈ 5.53 to 11.1 µM) | < 1 | < 10 | 16 to 32 (≈ 22.1 to 44.3 µM) | 2 to 4 (≈ 2.77 to 5.53 µM) | 16 to 32 (≈ 22.1 to 44.3 µM) | 2 to 4 (≈ 2.77 to 5.53 µM) | < 10
5 | O=C(CN1CCN(C(=O)NC(C(=O)N[C@H]2Cc3ccc(F)c(C(=O)O)c3OB2O)c2cc(F)c(O)c(O)c2Cl)C(=O)C1=O)NCc1cccc(O)c1 (stereo partly drawn) [Example 237, (3R)-3-(2-(2-chloro-5-fluoro-3,4-dihydroxyphenyl)-2-(4-(2-((3-hydroxybenzyl)amino)-2-oxoethyl)-2,3-dioxopiperazine-1-carboxamido)acetamido)-7-fluoro-2-hydroxy-3,4-dihydro-2H-benzo[e][1,2]oxaborinine-8-carboxylic acid] | 2 to 4 (≈ 2.68 to 5.36 µM) | < 1 | 16 to 32 (≈ 21.5 to 42.9 µM) | 16 to 32 (≈ 21.5 to 42.9 µM) | > 64 | 8 to 16 (≈ 10.7 to 21.5 µM) | 1 to 2 (≈ 1.34 to 2.68 µM) | 4 to 8 (≈ 5.36 to 10.7 µM) | < 1 | < 10 | 16 to 32 (≈ 21.5 to 42.9 µM) | 2 to 4 (≈ 2.68 to 5.36 µM) | 16 to 32 (≈ 21.5 to 42.9 µM) | 8 to 16 (≈ 10.7 to 21.5 µM) | < 10
6 | O=C(CN1CCN(C(=O)N[C@@H](C(=O)N[C@H]2Cc3ccc(F)c(C(=O)O)c3OB2O)c2cc(F)c(O)c(O)c2Cl)C(=O)C1=O)NCc1ccncc1 [Example 239, (R)-3-((R)-2-(2-chloro-5-fluoro-3,4-dihydroxyphenyl)-2-(2,3-dioxo-4-(2-oxo-2-((pyridin-4-ylmethyl)amino)ethyl)piperazine-1-carboxamido)acetamido)-7-fluoro-2-hydroxy-3,4-dihydro-2H-benzo[e][1,2]oxaborinine-8-carboxylic acid] | 32 to 64 (≈ 43.8 to 87.6 µM) | < 1 | 16 to 32 (≈ 21.9 to 43.8 µM) | 16 to 32 (≈ 21.9 to 43.8 µM) | > 64 | 8 to 16 (≈ 10.9 to 21.9 µM) | 1 to 2 (≈ 1.37 to 2.74 µM) | 4 to 8 (≈ 5.47 to 10.9 µM) | < 1 | < 10 | 16 to 32 (≈ 21.9 to 43.8 µM) | 2 to 4 (≈ 2.74 to 5.47 µM) | 16 to 32 (≈ 21.9 to 43.8 µM) | < 1 | < 10
7 | O=C(CN1CCN(C(=O)NC(C(=O)N[C@H]2Cc3ccc(F)c(C(=O)O)c3OB2O)c2cc(F)c(O)c(O)c2Cl)C(=O)C1=O)NCc1cccnc1 (stereo partly drawn) [Example 240, (3R)-3-(2-(2-chloro-5-fluoro-3,4-dihydroxyphenyl)-2-(2,3-dioxo-4-(2-oxo-2-((pyridin-3-ylmethyl)amino)ethyl)piperazine-1-carboxamido)acetamido)-7-fluoro-2-hydroxy-3,4-dihydro-2H-benzo[e][1,2]oxaborinine-8-carboxylic acid] | 2 to 4 (≈ 2.74 to 5.47 µM) | < 1 | 16 to 32 (≈ 21.9 to 43.8 µM) | 16 to 32 (≈ 21.9 to 43.8 µM) | > 64 | 2 to 4 (≈ 2.74 to 5.47 µM) | 1 to 2 (≈ 1.37 to 2.74 µM) | 4 to 8 (≈ 5.47 to 10.9 µM) | < 1 | < 10 | 16 to 32 (≈ 21.9 to 43.8 µM) | < 1 | 16 to 32 (≈ 21.9 to 43.8 µM) | 2 to 4 (≈ 2.74 to 5.47 µM) | < 10

— patent US20240270762A1, “PENICILLIN-BINDING PROTEIN INHIBITORS” (priority 2021, published 2024)
